These are literature values, as cited in paper PMC11859340, “The Therapeutic Potential of Spirooxindoles in Cancer: A Focus on p53–MDM2 Modulation” (Pharmaceuticals, 2025).

Where two headings read alike, the source gives them in different places.

Usually IC50 stands for the point on the concentration scale where inhibition reaches its midpoint. Usually Ki stands for a measure of affinity in units of concentration, obtained from inhibition or displacement.

For data set [1], the system named is HCT116 (p53^+/+). The arrangement: method as in PMID 24268795. The following applies: read-out: GI50 against HCT116 (p53^+/+).
Data set [2] deals with SW620 (mutant p53). Further details: method as in PMID 24268795. Conditions: read-out: GI50 against SW620.
The subject of data set [3] is HepG2 (hepatocellular wild p53 type). Further details: method as in PMID 24268795. The following applies: read-out: GI50 against HepG2.
For data set [4], the system named is HCT116 (p53^−/−). Further details: method as in PMID 24268795. Conditions: read-out: GI50 against HCT116 (p53^−/−).
Data set [5] concerns ZR-75-1 (wild-type p53). Further details: method as in PMID 29210587. Conditions: at 20 μM, MTT.
Data set [6] deals with BT-474 (mutated-type p53). Further details: method as in PMID 29210587. Conditions: at 20 μM, MTT.
Data set [7] has as its system MDM2. The arrangement: method as in PMID 29210587. The following applies: at 20 μM, HTRF method.
For data set [8], the system named is MCF7. Further details: method as in PMID 29210587. The following applies: at 20 μM, MTT.
Data set [9] relates to MCF7 “wild p53”. Further details: method as in PMID 37731691. Conditions: MTT; read-out: IC50 against MCF7.
Data set [10] has as its system MDA-MB-231 “mutant p53”. The arrangement: method as in PMID 37731691. The following applies: MTT; read-out: IC50 against MDA-MB-231.
Data set [11] relates to MCF 10A. Further details: method as in PMID 37731691. Conditions: MTT; read-out: IC50 against MCF 10A.
In data set [12] the test system is SW620 (colon, mutant p53). The arrangement: method as in doi:10.1039/C5MD00450K. The following applies: read-out: GI50 against SW620.
Data set [13] relates to HepG2 (liver, wild p53 type). Further details: method as in doi:10.1039/C5MD00450K. The following applies: read-out: GI50 against HepG2.
The test system of data set [14] is HCT116 (p53^+/+). Further details: method as in doi:10.1039/C5MD00450K. Conditions: read-out: GI50 against HCT116 (p53^+/+).
Data set [15] relates to HCT116 (p53^−/−). Further details: method as in doi:10.1039/C5MD00450K. The following applies: read-out: GI50 against HCT116 (p53^−/−).
The subject of data set [16] is breast MCF7. The arrangement: method as in PMID 31047751. The following applies: CCK-8.
The target in data set [17] is MDM2. Further details: method as in PMID 31047751. The following applies: fluorescence polarization assay; read-out: Ki, MDM2 inhibitory effect.
In data set [18] the test system is colon HCT116. Further details: method as in PMID 31047751. The following applies: CCK-8.
Data set [19] deals with lung A549. Further details: method as in PMID 31047751. Conditions: CCK-8.
The subject of data set [20] is HeLa (cervical). Further details: method as in PMID 37935912. Conditions: SRB; read-out: IC50 against HeLa.
Data set [21] has as its system A2870T “ovarian”. The arrangement: method as in PMID 28027532. Conditions: MTT; read-out: IC50 against A2870T.
In data set [22] the test system is MCF7 “breast”. Further details: method as in PMID 28027532. The following applies: MTT; read-out: IC50 against MCF7.
On the set-up of data set [23]: method as in PMID 30508794. The following applies: MTT; read-out: IC50 against PC3.
The test system of data set [24] is HepG2 (liver). Further details: method as in PMID 30802707. Conditions: MTT; read-out: IC50 against HepG2.
The test system of data set [25] is H1975 “lung”. The arrangement: method as in PMID 28027532. The following applies: MTT; read-out: IC50 against H1975.
The subject of data set [26] is VERO-B (normal) cells. The following applies: read-out: IC50 against VERO-B; MTT, normal cells.
Data set [27] has as its system HepG2 (liver). The arrangement: method as in PMID 30508794. The following applies: MTT; read-out: IC50 against HepG2.
The test system of data set [28] is HEK293T (embryonic kidney). Further details: method as in doi:10.1080/10426507.2020.1723590. The following applies: MTT; read-out: IC50 against HEK293T.
The subject of data set [29] is PC-3 (prostate). Further details: method as in PMID 30802707. Conditions: MTT; read-out: IC50 against PC-3.
The test system of data set [30] is A549 (lung). Further details: method as in doi:10.1080/10426507.2020.1723590. Conditions: MTT; read-out: IC50 against A549.
Data set [31] concerns HCT116 “colon”. The arrangement: method as in PMID 28027532. Conditions: MTT; read-out: IC50 against HCT116.
For data set [32], the system named is A2870s. Further details: method as in PMID 28027532. Conditions: MTT; read-out: IC50 against A2870s.
Data set [33] relates to HCT116 (colon). Further details: method as in PMID 30508794. Conditions: MTT; read-out: IC50 against HCT116.
Data set [34] relates to CT26. Further details: method as in PMID 28027532. The following applies: MTT; read-out: IC50 against CT26.
Data set [35] deals with A549 “lung”. The arrangement: method as in PMID 28027532. The following applies: MTT; read-out: IC50 against A549.
Data set [36] relates to HCT116 (colon). Further details: method as in PMID 30802707. Conditions: MTT; read-out: IC50 against HCT116.
For data set [37], the system named is transplanted cancer (lung cancer). The arrangement: method as in PMID 32738990. The following applies: 100, 200, 400 mg/kg.

Take `Cc1ccc(C2=NO[C@@]3(C(=O)Nc4cc(Cl)ccc43)[C@@H]2c2ccccc2)cc1`: the GI50 in [1] was 26.6 ± 1.07 µM; in [2], 31.6 ± 1.05 µM; in data set [3], 29.1 ± 1.09 µM; in data set [4] it was 30.6 ± 1.12 µM.
Take `C[C@H]1CN(C(=O)OC(C)(C)C)[C@@]2(C(=O)Nc3cc(Cl)ccc32)[C@@H]([N+](=O)[O-])[C@@H]1c1ccc(Cl)cc1`: in data set [5], the “% inhibition, ZR-75-1” value was 82.28%. Moreover, in data set [6], the “% inhibition, BT-474” value was 50.00%. Further, the “inhibitory activity against MDM2” value in data set [7] is recorded as 84.86. In data set [8], the “% inhibition, MCF7” value was 93.03%.
As to `O=C1C=CC(OCc2cn(CCN3C(=O)[C@]4(c5ccc(Br)cc53)[C@@H](c3ccccc3)C(c3ccccc3)=NN4c3ccccc3)nn2)(c2cc(=O)c3c(O)cc(O)cc3o2)C=C1` [105 (X = (CH2)2)], the IC50 in data set [9] is 2.92 µM; in [10], 1.08 µM; in data set [11] it was 4.56 µM.
As to `O=C1Nc2ccc(Br)cc2[C@]12ON=C(c1cccc(Cl)c1)N2c1cccc(Cl)c1` [110 (R^1 = 5-Br, R^2 = 3-Cl, R^3 = 3-Cl)], the GI50 in data set [12] was 2.1 ± 0.3 µM; in data set [13], 2.1 µM; in data set [14] it was 2 µM; in data set [15] it was 2.9 ± 0.2 µM.
With `O=C(C1=CCC(c2ccc(Br)cc2)C2(S1)C(=O)Nc1ccccc12)c1ccccc1` (stereo not shown) [150 (R^1 = H, R^2 = Ph, R^3 = 4-BrC6H4)], the IC50 in data set [16] (read-out: IC50 against MCF7) is 6.8 µM; in [18] (read-out: IC50 against HCT116) it was 1.7 µM; in data set [19] (read-out: IC50 against A549), 2.1 µM. Besides, the “% inhibition, MCF7” value in [16] (at 10 μM) is reported as 69.4%. The Ki in [17] was 43.8 µM. Moreover, the “% inhibition, HCT116” value in data set [18] (at 10 μM) is 91.9%. The “% inhibition, A549” value in data set [19] (at 10 μM) is given as 75.1%.
For `N.N.[Cl][Pt][Cl]` [cisplatin, reference compound], the IC50 in data set [20] was 2 ± 0.3 µM; in [21], 27.3 µM; in [22], 7.8 µM; in [23], 5 ± 0.56 µM; in [24], 5.5 ± 1 µM; in data set [25] it was 9.7 µM. Moreover, the IC50 in [26] was 5 ± 0.2 µM; in data set [27] it was 5.5 ± 0.3 µM; in data set [28], 12.4 ± 3.9 µM; in [29], 5 ± 0.5 µM; in data set [30], 44.1 ± 3.9 µM; in data set [31] it was 17.4 µM. The IC50 was 20.9 µM in data set [32]; 12.6 ± 0.5 µM in [33]; 23.7 µM in data set [34]; 15.6 µM in data set [35]; 12.6 ± 2 µM in [36].
As to `CN1C(=O)C2(C(C#N)=C(N)Oc3cc4oc(-c5ccccc5)cc(=O)c4c(O)c32)c2cc(Br)ccc21` (stereo not shown) [compound 128], the “transplanted cancer in mice” value in [37] was “Inhibition of transplanted cancer in mice”.
